In US20220251085A1, “CYSTEINE BINDING COMPOSITIONS AND METHODS OF USE THEREOF” (University of Virginia Patent Foundation, priority 2019, published 2022):

Columns and labels:
[1] = tested on: DM93 cells lysates (soluble fractions); assay: Lysate activity of purine probes, gel-based (in-gel fluorescence); type: biochemical; conditions: for protein labeling activity in lysates: DM93 soluble fractions, 25 μM, 2 hrs, 37° C.
Protocol: Lysate Activity Method: DM93 cells were grown at 37° C. in 5% CO2 until 90% confluent. Once confluent, cells were scraped and washed 3× times with cold PBS and lysed in PBS+protease inhibitor. Lysates were spun at 100,000×g for 45 minutes. Soluble fractions were treated with 25 μM of halogenated purine probes (unless stated) for 2 hrs (unless stated) at 37° C. Purine probe modified proteins were conjugated to rhodamine-azide by CuAAC, subjected to SDS-PAGE analysis, and detected by in-gel fluorescence scanning. SDS-PAGE gels were stained with Coomassie brilliant blue to determine protein load.

[2] = tested on: DM93 cells; assay: Live cell activity of purine probes, gel-based (CuAAC rhodamine-azide, in-gel fluorescence); conditions: for labeling profile in live cells: DM93 cells, 25 μM, 4 hours
Protocol: Live Cell Activity Method: DM93 cells were grown at 37° C. in 5% CO2 until 90% confluent. Once confluent cells were washed with serum free media and treated with halogenated purine probes at a final concentration of 25 μM (unless stated) for 4 hours (unless stated). Cells were then scraped and washed 3× with cold PBS and lysed in PBS+protease inhibitor. Lysates were spun at 100,000×g for 45 minutes. Halogen probe-modified proteins in soluble fractions were visualized by conjugating rhodamine-azide using copper-catalyzed azide-alkyne cycloaddition (CuAAC; 1 hour, room temperature), subjected to SDS-PAGE, and detected by in-gel fluorescence scanning. SDS-PAGE gels were also stained with Coomassie brilliant blue to determine protein load. All samples were loaded with equivalent amounts of protein. Thus, changes in purine probe labeling is not due to loading of different proteome amounts.

[3] = tested on: C57Bl/6 mice; assay: In vivo activity of purine probes in mouse tissues, gel-based; conditions: for time of peak / most robust labeling in vivo: 20 mg/kg probe
Protocol: Mouse Treatment and Tissue Preparation Methods: 8-12 week old male and female C57Bl/6 mice were treated intraperitoneally (IP) or by oral gavage (OG) with either AHL125 (Pu-1 or AHL-Pu-1), AHL128 (Pu-2 or AHL-Pu-2), or vehicle (18:1:2, PBS:PEG40:DMSO) at 20 mg/kg unless stated otherwise. Treatment time is indicated in the experiment below. Mice were then euthanized and perfused using PBS. Tissues were then harvested, rinsed and flash frozen using liquid nitrogen and stored at −80° C. until further use. Tissues were lysed using dounce homgenization in the presence of PBS+protease inhibitor. Initial suspensions were centrifuged at 3000×g for 5 minutes to remove insoluble material. The lysate was collected and centrifuged again at 100,000×g for 45 minutes to obtain the soluble fraction. Purine probe modified proteins from treated mice were conjugated to rhodamine-azide by CuAAC, subjected to SDS-PAGE analysis, and detected by in-gel fluorescence scanning. SDS-PAGE gels were stained with Coomassie brilliant blue to determine protein load. All samples were loaded with equivalent amounts of protein. Thus, changes in purine probe labeling is not due to loading of different proteome amounts.
Mice were also treated with 80 mg/kg oral gavage (OG) to determine whether purine probes are orally bioavailable. Mice were treated for four hours.

C#CCn1cnc2nc(Cl)nc(Cl)c21 [Pu-1, 2,6-Dichloro-7-(prop-2-yn-1-yl)-7H-purine]
protein labeling activity in lysates [1]: highest protein labeling activity | reactivity of N7 versus N9 tautomers ([1]; lysates): more reactive | concentration dependence of labeling ([1]; proteomes): concentration dependent labeling of proteomes | time dependence of labeling ([1]; proteomes): time dependence in protein labeling | labeling profile in live cells [2]: robust labeling profiles | reactivity of N7 versus N9 tautomers ([2]; live DM93 cells): more reactive | concentration dependence of labeling ([2]; live cells): concentration dependent labeling | time dependence of labeling ([2]; live cells): react in a time dependent manner | tissue with highest activity [3]: highest activity in lung | time of peak / most robust labeling in vivo [3]: 2 h | labeling profile in vivo across tissues ([3]; IP or OG, lung, liver, spleen, heart, brain, kidney, WAT): most robust labeling profile in vivo

C#CCn1cnc2c(Cl)nc(Cl)nc21 [Pu-2, 2,6-Dichloro-9-(prop-2-yn-1-yl)-9H-purine]
protein labeling activity in lysates [1]: highest protein labeling activity | time dependence of labeling ([1]; proteomes): time dependence in protein labeling | labeling profile in live cells [2]: robust labeling profiles | time dependence of labeling ([2]; live cells): react in a time dependent manner | time of peak / most robust labeling in vivo [3]: 4 h
